Measurements as given in patent US10945435B2, “Imidazopyrimidine derivatives with sulfur containing phenyl and pyridyl substituents” (SYNGENTA PARTICIPATIONS AG, priority 2017, dated 2021).

Experiments:
Format in all cases: in vivo
[1] = tested on: Bemisia tabaci (Cotton White Fly); assay: Example B1 Bemisia tabaci feeding/contact activity; conditions: foliar, 144 h, application rate of 200 ppm, adult white flies on sprayed cotton leaf discs, 6 days after incubation
Protocol: Bemisia tabaci (Cotton White Fly): Feeding/Contact Activity
Cotton leaf discs were placed on agar in 24-well microtiter plates and sprayed with aqueous test solutions prepared from 10,000 ppm DMSO stock solutions. After drying the leaf discs were infested with adult white flies. The samples were checked for mortality 6 days after incubation.

[2] = tested on: Diabrotica balteata (Corn Root Worm); assay: Example B2 Diabrotica balteata mortality and growth inhibition; conditions: 96 h, application rate of 200 ppm, L2 larvae on sprayed maize sprouts, 4 days after infestation, read-out: effect in at least one of the two categories (mortality or growth inhibition)
Protocol: Diabrotica balteata (Corn Root Worm)
Maize sprouts placed onto an agar layer in 24-well microtiter plates were treated with aqueous test solutions prepared from 10,000 ppm DMSO stock solutions by spraying. After drying, the plates were infested with L2 larvae (6 to 10 per well). The samples were assessed for mortality and growth inhibition in comparison to untreated samples 4 days after infestation.

[3] = tested on: Diabrotica balteata (Corn Root Worm); assay: Example B4 Diabrotica balteata mortality; conditions: 96 h, application rate of 200 ppm, L2 larvae on sprayed maize sprouts, 4 days after infestation
Protocol: Diabrotica Balteata (Corn Root Worm):
Maize sprouts placed onto an agar layer in 24-well microtiter plates were treated with aqueous test solutions prepared from 10,000 ppm DMSO stock solutions by spraying. After drying, the plates were infested with L2 larvae (6 to 10 per well). The samples were assessed for mortality 4 days after infestation.

[4] = tested on: Euschistus heros (Neotropical Brown Stink Bug); assay: Example B5 Euschistus heros mortality and growth inhibition; conditions: 120 h, application rate of 200 ppm, N2 nymphs on sprayed soybean leaves, 5 days after infestation, read-out: effect in at least one of the two categories (mortality or growth inhibition)
Protocol: Euschistus heros (Neotropical Brown Stink Bug)
Soybean leaves on agar in 24-well microtiter plates were sprayed with aqueous test solutions prepared from 10,000 ppm DMSO stock solutions. After drying the leaves were infested with N2 nymphs. The samples were assessed for mortality and growth inhibition in comparison to untreated samples 5 days after infestation.

[5] = tested on: Euschistus heros (Neotropical Brown Stink Bug); assay: Example B7 Euschistus heros feeding/contact activity; conditions: 120 h, application rate of 200 ppm, N2 nymphs on sprayed soybean leaves, 5 days after infestation
Protocol: Euschistus heros (Neotropical Brown Stink Bug): Feeding/Contact Activity
Soybean leaves on agar in 24-well microtiter plates were sprayed with aqueous test solutions prepared from 10,000 ppm DMSO stock solutions. After drying the leaves were infested with N2 nymphs. The samples were assessed for mortality 5 days after infestation.

[6] = tested on: Frankliniella occidentalis (Western Flower Thrips); assay: Example B8 Frankliniella occidentalis feeding/contact activity; conditions: foliar, 168 h, application rate of 200 ppm, mixed-age population on sprayed sunflower leaf discs, 7 days after infestation
Protocol: Frankliniella occidentalis (Western Flower Thrips): Feeding/Contact Activity
Sunflower leaf discs were placed on agar in 24-well microtiter plates and sprayed with aqueous test solutions prepared from 10,000 DMSO stock solutions. After drying the leaf discs were infested with a Frankliniella population of mixed ages. The samples were assessed for mortality 7 days after infestation.

[7] = tested on: Myzus persicae (Green Peach Aphid); assay: Example B9 Myzus persicae feeding/contact activity; conditions: foliar, 144 h, application rate of 200 ppm, mixed-age aphids on sprayed sunflower leaf discs, 6 days after infestation
Protocol: Myzus persicae (Green Peach Aphid): Feeding/Contact Activity
Sunflower leaf discs were placed onto agar in a 24-well microtiter plate and sprayed with aqueous test solutions prepared from 10,000 ppm DMSO stock solutions. After drying, the leaf discs were infested with an aphid population of mixed ages. The samples were assessed for mortality 6 days after infestation.

[8] = tested on: Plutella xylostella (Diamond Back Moth); assay: Example B11 Plutella xylostella growth inhibition activity; conditions: 120 h, application rate of 200 ppm, L2 larvae on treated artificial diet, 5 days after infestation
Protocol: Plutella xylostella (Diamond Back Moth): Growth Inhibition Activity
24-well microtiter plates with artificial diet were treated with aqueous test solutions prepared from 10,000 ppm DMSO stock solutions by pipetting. After drying, the plates were infested with L2 larvae (10 to 15 per well). The samples were assessed for growth inhibition in comparison to untreated samples 5 days after infestation. Control of Plutella xylostella by a test sample is given when the growth inhibition is higher than the untreated sample.

[9] = tested on: Plutella xylostella (Diamond Back Moth); assay: Example B12 Plutella xylostella feeding/contact activity; conditions: 120 h, application rate of 200 ppm, L2 larvae on treated artificial diet, 5 days after infestation
Protocol: Plutella xylostella (Diamond Back Moth): Feeding/Contact Activity
24-well microtiter plates with artificial diet were treated with aqueous test solutions prepared from 10,000 ppm DMSO stock solutions by pipetting. After drying, the plates were infested with L2 larvae (10 to 15 per well). The samples were assessed for mortality 5 days after infestation.

[10] = tested on: Plutella xylostella (Diamond Back Moth); assay: Example B13 Plutella xylostella mortality and growth inhibition; conditions: 120 h, application rate of 200 ppm, L2 larvae on treated artificial diet, 5 days after infestation, read-out: effect in at least one of the two categories (mortality or growth inhibition)
Protocol: Plutella xylostella (Diamond Back Moth)
24-well microtiter plates with artificial diet were treated with aqueous test solutions prepared from 10,000 ppm DMSO stock solutions by pipetting. After drying, the plates were infested with L2 larvae (10 to 15 per well). The samples were assessed for mortality and growth inhibition in comparison to untreated samples 5 days after infestation.

[11] = tested on: Spodoptera littoralis (Egyptian Cotton Leaf Worm); assay: Example B14 Spodoptera littoralis anti-feeding activity; conditions: foliar, 72 h, application rate of 200 ppm, L1 larvae on sprayed cotton leaf discs, 3 days after infestation, read-out: control (anti-feeding effect)
Protocol: Spodoptera littoralis (Egyptian Cotton Leaf Worm): Anti-Feeding Activity
Cotton leaf discs were placed onto agar in 24-well microtiter plates and sprayed with aqueous test solutions prepared from 10,000 ppm DMSO stock solutions. After drying the leaf discs were infested with five L1 larvae. The samples were assessed for anti-feeding effect in comparison to untreated samples 3 days after infestation. Control of Spodoptera littoralis by a test sample is given when the anti-feedant effect is higher than the untreated sample.

[12] = tested on: Spodoptera littoralis (Egyptian Cotton Leaf Worm); assay: Example B16 Spodoptera littoralis feeding/contact activity; conditions: foliar, 72 h, application rate of 200 ppm, L1 larvae on sprayed cotton leaf discs, 3 days after infestation
Protocol: Spodoptera littoralis (Egyptian Cotton Leaf Worm): Feeding/Contact Activity
Cotton leaf discs were placed onto agar in 24-well microtiter plates and sprayed with aqueous test solutions prepared from 10,000 ppm DMSO stock solutions. After drying the leaf discs were infested with five L1 larvae. The samples were assessed for mortality 3 days after infestation.

[13] = tested on: Myzus persicae (Green Peach Aphid); assay: Example B10 Myzus persicae systemic activity; conditions: 144 h, test rate of 24 ppm, roots of infested pea seedlings in test solution, 6 days
Protocol: Myzus persicae (Green Peach Aphid). Systemic Activity
Roots of pea seedlings infested with an aphid population of mixed ages were placed directly into aqueous test solutions prepared from 10,000 DMSO stock solutions. The samples were assessed for mortality 6 days after placing seedlings into test solutions.

[14] = tested on: Spodoptera littoralis (Egyptian Cotton Leaf Worm); assay: Example B15 Spodoptera littoralis growth inhibition activity; conditions: foliar, 72 h, application rate of 200 ppm, L1 larvae on sprayed cotton leaf discs, 3 days after infestation, read-out: control (growth inhibition)
Protocol: Spodoptera littoralis (Egyptian Cotton Leaf Worm): Growth Inhibition Activity
Cotton leaf discs were placed onto agar in 24-well microtiter plates and sprayed with aqueous test solutions prepared from 10,000 ppm DMSO stock solutions. After drying the leaf discs were infested with five L1 larvae. The samples were assessed for growth inhibition in comparison to untreated samples 3 days after infestation. Control of Spodoptera littoralis by a test sample is given when the growth inhibition is higher than the untreated sample.

CCS(=O)(=O)c1cc(OC(C)(C)C#N)cnc1-c1cn2cnc(C(F)(F)C(F)(F)F)cc2n1 [Compound P18, 2-[[5-ethylsulfonyl-6-[7-(1,1,2,2,2-pentafluoroethyl)imidazo[1,2-c]pyrimidin-2-yl]-3-pyridyl]oxy]-2-methyl-propanenitrile]
≥ 80%: mortality at 200 ppm [1] | percent effect (mortality or growth inhibition) at 200 ppm [2] | mortality at 200 ppm [3] | percent effect (mortality or growth inhibition) at 200 ppm [4] | mortality at 200 ppm [5] | mortality at 200 ppm [6] | mortality at 200 ppm [7] | inhibition at 200 ppm [8] | mortality at 200 ppm [9] | percent effect (mortality or growth inhibition) at 200 ppm [10] | pest or weed control at 200 ppm [11] | mortality at 200 ppm [12]

CCS(=O)(=O)c1cc(OC)cnc1-c1cn2cnc(C(F)(F)F)cc2n1 [Compound P9, 2-(3-ethylsulfonyl-5-methoxy-2-pyridyl)-7-(trifluoromethyl)imidazo[1,2-c]pyrimidine]
≥ 80%: percent effect (mortality or growth inhibition) at 200 ppm [2] | mortality at 200 ppm [3] | mortality at 200 ppm [7] | mortality at 24 ppm [13] | inhibition at 200 ppm [8] | mortality at 200 ppm [9] | percent effect (mortality or growth inhibition) at 200 ppm [10] | pest or weed control at 200 ppm [11] | inhibition at 200 ppm [14] | mortality at 200 ppm [12]

CCS(=O)(=O)c1cc(OCC(F)F)cnc1-c1cn2cnc(SC(F)(F)F)cc2n1 [Compound P4, 2-[5-(2,2-difluoroethoxy)-3-ethylsulfonyl-2-pyridyl]-7-(trifluoromethylsulfanyl)imidazo[1,2-c]pyrimidine]
≥ 80%: mortality at 200 ppm [1] | percent effect (mortality or growth inhibition) at 200 ppm [2] | mortality at 200 ppm [3] | percent effect (mortality or growth inhibition) at 200 ppm [4] | mortality at 200 ppm [5] | mortality at 200 ppm [7] | inhibition at 200 ppm [8] | mortality at 200 ppm [9] | percent effect (mortality or growth inhibition) at 200 ppm [10] | pest or weed control at 200 ppm [11] | inhibition at 200 ppm [14] | mortality at 200 ppm [12]

CCS(=O)(=O)c1cc(OC)cnc1-c1cn2cnc(SC(F)(F)F)cc2n1 [Compound P5, 2-(3-ethylsulfonyl-5-methoxy-2-pyridyl)-7-(trifluoromethylsulfanyl)imidazo[1,2-c]pyrimidine]
≥ 80%: percent effect (mortality or growth inhibition) at 200 ppm [2] | mortality at 200 ppm [3] | percent effect (mortality or growth inhibition) at 200 ppm [4] | mortality at 200 ppm [5] | mortality at 200 ppm [7] | mortality at 200 ppm [9] | percent effect (mortality or growth inhibition) at 200 ppm [10] | pest or weed control at 200 ppm [11] | inhibition at 200 ppm [14] | mortality at 200 ppm [12]

CCS(=O)(=O)c1cc(OC(C)(C)C#N)cnc1-c1cn2cnc(C(F)(F)F)cc2n1 [Compound P13, 2-[[5-ethylsulfonyl-6-[7-(trifluoromethyl)imidazo[1,2-c]pyrimidin-2-yl]-3-pyridyl]oxy]-2-methyl-propanenitrile]
≥ 80%: mortality at 200 ppm [1] | percent effect (mortality or growth inhibition) at 200 ppm [2] | mortality at 200 ppm [3] | percent effect (mortality or growth inhibition) at 200 ppm [4] | mortality at 200 ppm [5] | mortality at 200 ppm [6] | mortality at 200 ppm [7] | inhibition at 200 ppm [8] | mortality at 200 ppm [9] | percent effect (mortality or growth inhibition) at 200 ppm [10] | pest or weed control at 200 ppm [11] | mortality at 200 ppm [12]

CCS(=O)(=O)c1cc(OC(C)(C)C(N)=O)cnc1-c1cn2cnc(C(F)(F)F)cc2n1 [Compound P12, 2-[[5-ethylsulfonyl-6-[7-(trifluoromethyl)imidazo[1,2-c]pyrimidin-2-yl]-3-pyridyl]oxy]-2-methyl-propanamide]
≥ 80%: percent effect (mortality or growth inhibition) at 200 ppm [4] | mortality at 200 ppm [5] | mortality at 200 ppm [7] | inhibition at 200 ppm [14]

CCS(=O)(=O)c1cc(OCSC)cnc1-c1cn2cnc(C(F)(F)F)cc2n1 [Compound P16, 2-[3-ethylsulfonyl-5-(methylsulfanylmethoxy)-2-pyridyl]-7-(trifluoromethyl)imidazo[1,2-c]pyrimidine]
≥ 80%: mortality at 200 ppm [1] | percent effect (mortality or growth inhibition) at 200 ppm [2] | mortality at 200 ppm [3] | percent effect (mortality or growth inhibition) at 200 ppm [4] | mortality at 200 ppm [5] | mortality at 200 ppm [6] | mortality at 200 ppm [7] | mortality at 24 ppm [13] | inhibition at 200 ppm [8] | percent effect (mortality or growth inhibition) at 200 ppm [10] | pest or weed control at 200 ppm [11] | mortality at 200 ppm [12]
